{"source": "ChEMBL document CHEMBL3045911", "about": "“Control of Contarinia nasturtii Keiffer (Diptera: Cecidomyiidea) by foliar sprays of acetamiprid on cauliflower transplants” (2007)", "key": {"Contarinia nasturtii [1]": {"system": "Contarinia nasturtii", "assay": "Pesticidal activity against Contarinia nasturtii grown on three-leaf stage cauliflower seedling at 34 g a.i./ha applied as foliar spray 4 days post-ovipositioning measured after 7 days", "format": "functional"}, "Contarinia nasturtii [2]": {"system": "Contarinia nasturtii", "assay": "Pesticidal activity against Contarinia nasturtii grown on three-leaf stage cauliflower seedling assessed as decrease in insect eggs laid per plant at 34 g a.i./ha applied as foliar spray immediately post-ovipositioning measured after 7 days relative to control", "format": "functional, organism-based"}, "Contarinia nasturtii [3]": {"system": "Contarinia nasturtii", "assay": "Pesticidal activity against Contarinia nasturtii grown on three-leaf stage cauliflower seedling assessed as decrease in larval feeding time at 34 g a.i./ha applied as foliar spray 8 days post-ovipositioning measured as emergence of adult insect in the soil 7 days after cutting of seedling", "format": "functional, organism-based"}, "Contarinia nasturtii [4]": {"system": "Contarinia nasturtii", "assay": "Pesticidal activity against Contarinia nasturtii grown on […] assessed as larvae survival applied as foliar spray 8 days post-ovipositioning relative to control", "format": "functional"}, "Contarinia nasturtii [5]": {"system": "Contarinia nasturtii", "assay": "Pesticidal activity against Contarinia nasturtii grown on three-leaf stage cauliflower seedling at 34 g a.i./ha applied as foliar spray immediately post-ovipositioning measured after 7 days", "format": "functional"}, "Contarinia nasturtii [6]": {"system": "Contarinia nasturtii", "assay": "Pesticidal activity against Contarinia nasturtii grown on three-leaf stage cauliflower seedling assessed as mortality of insect adult at 34 g a.i./ha applied as foliar spray prior to oviposition measured after 48 hr relative to control", "format": "functional"}, "Contarinia nasturtii [7]": {"system": "Contarinia nasturtii", "assay": "Pesticidal activity against Contarinia nasturtii grown on three-leaf stage cauliflower seedling assessed as decrease in insect eggs laid per plant at 34 g a.i./ha applied as foliar spray 4 days post-ovipositioning measured after 7 days relative to control", "format": "functional, organism-based"}, "Contarinia nasturtii [8]": {"system": "Contarinia nasturtii", "assay": "Pesticidal activity against Contarinia nasturtii grown on three-leaf stage cauliflower seedling at 34 g a.i./ha applied as foliar spray prior to oviposition measured after 7 days", "format": "functional"}, "Contarinia nasturtii [9]": {"system": "Contarinia nasturtii", "assay": "Pesticidal activity against Contarinia nasturtii grown on three-leaf stage cauliflower seedling assessed as insect egg death at 34 g a.i./ha applied as foliar spray immediately post-ovipositioning measured after 7 days relative to control", "format": "functional"}, "Contarinia nasturtii [10]": {"system": "Contarinia nasturtii", "assay": "Pesticidal activity against Contarinia nasturtii grown on […] assessed as larval pupation applied as foliar spray 8 days post-ovipositioning relative to control", "format": "functional"}, "Contarinia nasturtii [11]": {"system": "Contarinia nasturtii", "assay": "Pesticidal activity against Contarinia nasturtii grown on three-leaf stage cauliflower seedling assessed as decrease in damage to seedling tips at 34 g a.i./ha applied as foliar spray 8 days post-ovipositioning measured after 10 days", "format": "functional, organism-based"}, "Contarinia nasturtii [12]": {"system": "Contarinia nasturtii", "assay": "Pesticidal activity against Contarinia nasturtii grown on three-leaf stage cauliflower seedling assessed as decrease in insect eggs laid per plant at 34 g a.i./ha applied as foliar spray prior to oviposition measured after 7 days relative to control", "format": "functional, organism-based"}, "Contarinia nasturtii [13]": {"system": "Contarinia nasturtii", "assay": "Pesticidal activity against Contarinia nasturtii grown on three-leaf stage cauliflower seedling assessed as insect egg hatching at 34 g a.i./ha applied as foliar spray immediately post-ovipositioning measured after 7 days (reference value: 100%)", "format": "functional"}, "Contarinia nasturtii [14]": {"system": "Contarinia nasturtii", "assay": "Pesticidal activity against Contarinia nasturtii grown on three-leafstage cauliflower seedling assessed as insect egg hatching at 34 g a.i./ha applied as foliar spray prior to oviposition measured after 7 days (reference value: 100%)", "format": "functional"}, "Contarinia nasturtii [15]": {"system": "Contarinia nasturtii", "assay": "Pesticidal activity against Contarinia nasturtii grown on three-leaf stage cauliflower seedling assessed as insect egg hatching at 34 g a.i./ha applied as foliar spray 4 days post-ovipositioning measured after 7 days (reference value: 99.73 +/- 0.27%)", "format": "functional"}, "Contarinia nasturtii [16]": {"system": "Contarinia nasturtii", "assay": "Pesticidal activity against Contarinia nasturtii grown on three-leaf stage cauliflower seedling assessed as insect egg death at 34 g a.i./ha applied as foliar spray prior to oviposition measured after 7 days", "format": "functional, organism-based"}, "Contarinia nasturtii [17]": {"system": "Contarinia nasturtii", "assay": "Pesticidal activity against Contarinia nasturtii grown on three-leaf stage cauliflower seedling assessed as decrease in mean number of larvae at 34 g a.i./ha applied as foliar spray 8 days post-ovipositioning measured on the above ground part of seedling after 10 days", "format": "functional, organism-based"}, "Contarinia nasturtii [18]": {"system": "Contarinia nasturtii", "assay": "Pesticidal activity against Contarinia nasturtii grown on three-leaf stage cauliflower seedling assessed as mortality of insect adult at 34 g a.i./ha applied as foliar spray prior to oviposition measured after 24 hr relative to control", "format": "functional"}, "Contarinia nasturtii [19]": {"system": "Contarinia nasturtii", "assay": "Pesticidal activity against Contarinia nasturtii grown on three-leaf stage cauliflower seedling assessed as insect egg hatching at 34 g a.i./ha applied as foliar spray 8 days post-ovipositioning measured after 10 days (reference value: 100%)", "format": "functional"}, "Contarinia nasturtii [20]": {"system": "Contarinia nasturtii", "assay": "Pesticidal activity against Contarinia nasturtii grown on […] applied as foliar spray immediately post-ovipositioning relative to control", "format": "functional"}, "Contarinia nasturtii [21]": {"system": "Contarinia nasturtii", "assay": "Pesticidal activity against Contarinia nasturtii grown on three-leaf stage cauliflower seedling at 34 g a.i./ha applied as foliar spray 8 days post-ovipositioning measured after 10 days", "format": "functional"}}, "note": "The source made the active and inactive calls. No cut-off for these calls is given here.", "data": [{"smiles": "C/C(=N\\C#N)N(C)Cc1ccc(Cl)nc1", "note": "[ACETAMIPRID]", "values": [{"measurement": "Activity", "setting": "Contarinia nasturtii [1]", "result": 99.83, "unit": "%"}, {"measurement": "Activity", "setting": "Contarinia nasturtii [2]", "result": "inactive"}, {"measurement": "Activity", "setting": "Contarinia nasturtii [3]", "result": "Active"}, {"measurement": "Activity", "setting": "Contarinia nasturtii [4]", "result": 30, "unit": "%"}, {"measurement": "Activity", "setting": "Contarinia nasturtii [5]", "result": 100, "unit": "%"}, {"measurement": "mortality at 34 g/ha", "setting": "Contarinia nasturtii [6]", "result": 100, "unit": "%"}, {"measurement": "Activity", "setting": "Contarinia nasturtii [7]", "result": "inactive"}, {"measurement": "Activity", "setting": "Contarinia nasturtii [8]", "result": 99.52, "unit": "%"}, {"measurement": "Activity", "setting": "Contarinia nasturtii [9]", "result": 100, "unit": "%"}, {"measurement": "Activity", "setting": "Contarinia nasturtii [10]", "result": 20, "unit": "%"}, {"measurement": "Activity", "setting": "Contarinia nasturtii [11]", "result": "inactive"}, {"measurement": "Activity", "setting": "Contarinia nasturtii [12]", "result": "Active"}, {"measurement": "Activity", "setting": "Contarinia nasturtii [13]", "result": 0, "unit": "%"}, {"measurement": "Activity", "setting": "Contarinia nasturtii [14]", "result": 0.48, "unit": "%"}, {"measurement": "Activity", "setting": "Contarinia nasturtii [15]", "result": 100, "unit": "%"}, {"measurement": "Activity", "setting": "Contarinia nasturtii [16]", "result": "Active"}, {"measurement": "Activity", "setting": "Contarinia nasturtii [17]", "result": "Active"}, {"measurement": "mortality at 34 g/ha", "setting": "Contarinia nasturtii [18]", "result": 84.4, "unit": "%"}, {"measurement": "Activity", "setting": "Contarinia nasturtii [19]", "result": 100, "unit": "%"}, {"measurement": "Activity", "setting": "Contarinia nasturtii [20]", "result": 99.9, "unit": "%"}, {"measurement": "Activity", "setting": "Contarinia nasturtii [21]", "result": 69.89, "unit": "%"}]}]}
